Source: patent US11932595B2, “VDR-silent vitamin D derivative as inhibitors of SREBP and pharmaceutical use thereof” (KYOTO UNIVERSITY, priority 2020, dated 2024)

Target: T1, SCAP protein (Mus musculus, UniProt Q6GQT6)
T1 construct: from tissue; host or cells: mouse liver
T1 sequence (Q6GQT6 1-1276): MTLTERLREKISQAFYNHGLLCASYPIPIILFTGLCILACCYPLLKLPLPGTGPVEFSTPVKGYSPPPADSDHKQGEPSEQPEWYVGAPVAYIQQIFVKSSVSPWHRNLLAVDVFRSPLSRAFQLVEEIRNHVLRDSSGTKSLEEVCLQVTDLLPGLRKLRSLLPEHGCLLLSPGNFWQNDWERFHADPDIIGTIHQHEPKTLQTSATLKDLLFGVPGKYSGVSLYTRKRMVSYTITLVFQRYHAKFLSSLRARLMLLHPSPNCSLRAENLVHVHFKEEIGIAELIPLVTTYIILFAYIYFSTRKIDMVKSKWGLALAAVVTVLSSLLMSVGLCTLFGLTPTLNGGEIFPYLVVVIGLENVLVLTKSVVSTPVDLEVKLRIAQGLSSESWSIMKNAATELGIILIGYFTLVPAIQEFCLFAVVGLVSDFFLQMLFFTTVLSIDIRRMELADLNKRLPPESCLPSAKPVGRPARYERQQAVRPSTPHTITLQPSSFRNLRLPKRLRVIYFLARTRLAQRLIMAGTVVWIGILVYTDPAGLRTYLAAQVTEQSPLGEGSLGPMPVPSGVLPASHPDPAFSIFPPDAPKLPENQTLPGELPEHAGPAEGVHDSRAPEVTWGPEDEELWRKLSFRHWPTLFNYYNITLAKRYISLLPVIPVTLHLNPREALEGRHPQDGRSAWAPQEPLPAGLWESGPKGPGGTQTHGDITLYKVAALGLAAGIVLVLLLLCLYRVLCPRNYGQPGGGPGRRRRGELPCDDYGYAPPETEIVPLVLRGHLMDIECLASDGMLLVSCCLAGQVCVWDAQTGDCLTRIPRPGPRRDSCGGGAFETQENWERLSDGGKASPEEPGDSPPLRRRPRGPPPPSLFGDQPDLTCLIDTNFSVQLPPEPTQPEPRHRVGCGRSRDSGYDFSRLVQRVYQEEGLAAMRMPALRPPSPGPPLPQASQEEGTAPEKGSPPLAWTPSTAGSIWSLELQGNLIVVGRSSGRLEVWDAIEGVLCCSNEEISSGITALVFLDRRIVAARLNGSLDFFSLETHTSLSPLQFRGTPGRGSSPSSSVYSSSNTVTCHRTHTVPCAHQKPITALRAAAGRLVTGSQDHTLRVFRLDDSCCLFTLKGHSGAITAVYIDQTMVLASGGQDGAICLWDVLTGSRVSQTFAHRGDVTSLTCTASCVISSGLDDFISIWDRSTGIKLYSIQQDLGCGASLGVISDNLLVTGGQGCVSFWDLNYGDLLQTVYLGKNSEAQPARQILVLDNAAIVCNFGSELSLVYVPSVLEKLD
Assay: Short-term in vivo model: Western blot of SCAP protein in the liver
Design: species or system mice
Details: FIG. 5F
Experimental: To quickly and simultaneously examine their SREBP inhibitory activity and VDR-derived calcemic activity in vivo, a short-term in vivo screening system of mice was established. With reference to the previous report (Horton, J. D. et al. Proc. Natl. Acad. Sci. U.S.A. 1998, 95, 5987-5992.), mice were fasted for 48 hours then refed a special diet (low fat, high carbohydrate diet, lacking in vitamin D) for 48 hours before sacrifice. 10 mg/kg compounds or vehicle control were administered intraperitoneally once every 24 hours during the fasting and refeeding. Western blot analysis of SCAP protein in the livers obtained from the indicated mice were obtained, (FIG. 5F).

increased hepatic expression of SCAP protein after fasting and refeeding: canceled
Compound: C[C@H](CCC(F)(F)C(C)(C)O)[C@H]1CC[C@H]2/C(=C/Cn3nnnc3-c3ccccc3)CCC[C@]12C [Compound 50, (R)-3,3-Difluoro-2-methyl-6-{(1R,3aS,7aR,E)-7a-methyl-4-[2-(5-phenyl-1H-tetrazol-1-yl)ethylidene]octahydro-1H-inden-1-yl}heptan-2-ol]
